{"source": "BindingDB's records for patent US11084800", "about": "(Achillion Pharmaceuticals, 2021)", "biological_target": "Complement factor D (Homo sapiens, UniProt P00746)", "sequence (P00746 whole entry)": "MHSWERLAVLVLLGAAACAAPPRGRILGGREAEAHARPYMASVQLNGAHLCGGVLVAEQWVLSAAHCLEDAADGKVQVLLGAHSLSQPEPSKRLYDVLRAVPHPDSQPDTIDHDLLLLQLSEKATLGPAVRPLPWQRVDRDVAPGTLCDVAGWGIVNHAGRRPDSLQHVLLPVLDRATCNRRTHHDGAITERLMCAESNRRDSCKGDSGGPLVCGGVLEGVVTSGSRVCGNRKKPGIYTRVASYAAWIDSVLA", "experiment": "Factor D Assay", "description": "Human Factor D (purified from human serum, Complement Technology, Inc.) at 80 nM final concentration is incubated with test compound at various concentrations for 5 min at room temperature in 50 mM Tris, 1M NaCl, pH 7.5. A synthetic substrate Z-L-Lys-SBz and DTNB (Ellman's reagent) are added to final concentrations of 100 μM each. Absorbance at 405 nm (A405) is recorded at 30 second intervals for 30 min using a microplate spectrophotometer. IC50 values are calculated by nonlinear regression of complement Factor D reaction rates as a function of test compound concentration."}
{"compound": "CC(=O)c1nn(CC(=O)N2C[C@H]3C[C@H]3[C@H]2C(=O)N2C[C@H]3C[C@H]3C2C(=O)Nc2nc(Br)ccc2C)c2c(C)cc(-c3cnc(C)nc3)cc12", "note": "(stereo partly specified) [US11084800, Cpd No. 92]", "values": [{"measurement": "IC50", "value": "in the range around 5.5 µM"}]}
